Laboratory results published in article PMC8047011, “Enantiomers of 2-methylglutamate and 2-methylglutamine selectively impact mouse brain metabolism and behavior” (Scientific Reports, 2021).

Key:
C57Bl/6 mice [1] = test: Chronic low dose exposure, mortality and body weight; details: 10 mg/kg/day IP for a month
Method: Behavioral tests were performed on 2 month-old, male, C57Bl/6 mice. We selected male mice because SBFNL historical controls are male mice. First, we assessed safety and tolerability of acute exposure to our novel chemicals through the following sequence of tests immediately following IP injection: maximum tolerated dose with novel cage observation at 100, 300, or 900 mg/kg, and then SHIRPA, activity chamber, and then hot plate latency using 100 or 30 mg/kg IP in different drug naïve mice. […] Animals were dosed daily from 3 to 5 PM after the conclusion of each behavioral testing session. […] See Supplementary Methods for details. […]
sound-attenuating chamber was 74 cm (L) x 60 cm (W) x 60 cm (H). The mice were placed in the corner of the testing arena and allowed to explore the arena for 60 min while being tracked automatically. Parameters measured include distance moved, velocity, rearing, and times spent in the periphery and center of the Arena. Periphery was defined as the zone 5 cm away from the arena wall. The Arena was cleaned with a 1% Virkon solution at the end of the trial.
The novel cage observation (vide supra) and activity chamber open field assessment are not […]
outcome. The novel cage protocol is conducted on the benchtop in a lighted room using a clean home cage, and tests habituation using video recording and scoring of behavioral performance.
Moreover, the novel cage allows the tester to visualize any other side effects such as seizure or repetitive jumping. The activity chamber is in an enclosed box, and the test is done in the dark, without bedding, and in a sound isolating chamber. The activity chamber measures distance moved using infrared beams and without video recordings.
In vivo animal studies; Chronic Efficacy Study using C57Bl/6J mice
Animal: Two month-old, naïve male C57Bl/6 mice from Jackson Laboratory (Stock ID# 000664) were used in the study. The animals were housed as described above.
Dosing: (R)-2MeGlu (10 mg/kg), (S)-2MeGlu (10 mg/kg), rac-2MeGln (10 mg/kg), and vehicle (PBS) were administered IP at 10 ml/kg dosing volume daily. […]

C57Bl/6 mice [2] = test: Y maze spontaneous alternation; assay type: in vivo, mouse; details: chronic 10 mg/kg/day IP, week 2 of testing
Source text: Y Maze Spontaneous Alternation: The Y maze is made of plastic with 3 arms in a "Y" shape.
The arms are labelled as Arm A, B, and C; Arm A is 20.32 cm (L) x 5 cm (W) 12.7 cm (H), Arm B and C are 15.24 cm (L) x 5 cm (W), and 12.7 cm (H). The test is based on the willingness of rodents to explore a novel environment and designed to measure spontaneous alternations in rodents. Each mouse was placed in the center of the maze facing Arm B. The first entry was excluded from data analysis because the animals were led to the initial arm entry by the experimenter. Using an overhead camera, the number of arm entries and alternations were recorded for 5 minutes. An arm entry is when all four paws enter into a new arm of the maze.
The apparatus was cleaned with 1% Virkon. Parameters recorded were % alternation and the total number of entries into arms. […]

C57Bl/6 mice [3] = test: Activity chamber open field; assay type: in vivo, mouse; details: for Distance moved in the activity chamber vs vehicle: n = 6; for Distance moved in the activity chamber: chronic 10 mg/kg/day IP, after one week
Source text: See Supplementary Methods for details. […]
Activity Chamber Open Field: Assessment was made in an Open Field Activity Arena (Med Associates Inc., St. Albans, VT. Model ENV-515) mounted with three planes of infrared detectors within a specially designed sound-attenuating chamber (Med Associates Inc., St.
Albans, VT. MED-017M-027). The arena was 43 cm (L) x 43 cm (W) x 30 cm (H) and the […]
in the periphery and center of the Arena. […]
without bedding, and in a sound isolating chamber. The activity chamber measures distance moved using infrared beams and without video recordings. […]
were used in the study. The animals were housed as described above.
The first dose was administered […]
described above for 30 min.

[4] = Pharmacokinetics in mouse serum and brain; assay type: in vivo; details: 100 mg/kg IP
Method: Pharmacokinetics on 2MeGlu and 2MeGln in mice
C57BL/6 mice (Jackson Laboratory cat. no. 000664) were administered 100 mg/kg IP. At the times indicated, mice were deeply anesthetized by isoflurane, blood was collected by cardiac puncture and left to clot on ice, and then animals were perfused with cold PBS until viscera […]
dissected and one half frozen at –80 °C until homogenization in ice cold PBS (pH 7.4) using a probe ultrasonic homogenizer (Branson Sonifier 450, Power: 5, Cycle: 30%, time: 10 s) on ice.
The lysate was centrifuged (2,500g for 15 min at 4 °C) and the supernatant was assayed using Pierce BCA Protein Assay Kit (23225) using BioTek Epoch plate spectrophotometer by recording absorbance at 562 nm.
Two or three 10 μL aliquots of the homogenate were transferred to a 96 well plate and extracted with 190 μL of 60% acetonitrile in water containing 10 μM GABA-d6 or 10 μM Glu-d5 and Gln-d5 as internal standards. 40 μL aliquots of the extracts were then diluted with 120 μL of acetonitrile and prepared for LC-MS/MS analysis. Brain and serum half-lives were calculated using the ‘PKNCA’ package for R. Endogenous levels of Glu, Gln and GABA were determined in the brains of mice used in the pharmacokinetics experiment. MRM transitions specific for Glu, Gln and GABA were monitored simultaneously. […]

Row | Compound | Body weight over the month (C57Bl/6 mice [1]) | Spontaneous alternation in the Y maze (C57Bl/6 mice [2]) | Distance moved in the activity chamber vs vehicle (C57Bl/6 mice [3]; acute 30 mg/kg IP) | Distance moved in the activity chamber vs vehicle (C57Bl/6 mice [3]; acute 100 mg/kg IP) | Distance moved in the activity chamber (C57Bl/6 mice [3]) | Time of peak brain concentration [4] | Maximum brain concentration [4] | half-life ([4]; C57BL/6, brain, estimated) | Brain accumulation (with metabolite (S)-2MeGln) relative to (R)-2MeGlu [4]
1 | CC(N)(CCC(N)=O)C(=O)O (racemic) [rac-2MeGln, rac-2-methylglutamine] | no significant effect of treatment | no significant effect of treatment | modest but significant reduction in distance moved only at 11 min post injection | not significantly different from vehicle at any time point | no significant effect of treatment | 25 min | – | – | –
2 | C[C@@](N)(CCC(=O)O)C(=O)O [(R)-2MeGlu, (R)-2-methylglutamic acid] | no significant effect of treatment | no significant effect of treatment | modest but significant reduction in distance moved only at 11 min post injection | significantly reduced | no significant effect of treatment | ≤ 5 min | 30 pmol/mg protein | ~70 min | –
3 | C[C@](N)(CCC(=O)O)C(=O)O [(S)-2MeGlu, (S)-2-methylglutamic acid] | no significant effect of treatment | no significant effect of treatment | not significantly different | significantly reduced | no significant effect of treatment | 25 min | 50 pmol/mg protein | – | as much as tenfold more
